Target: T1, androgen receptor (AR) (Homo sapiens, UniProt P10275, T878A)
T1 construct: LNCaP cells express endogenous AR; endogenous in cells; host or cells: LNCaP
T1 sequence (P10275 1-920 T878A): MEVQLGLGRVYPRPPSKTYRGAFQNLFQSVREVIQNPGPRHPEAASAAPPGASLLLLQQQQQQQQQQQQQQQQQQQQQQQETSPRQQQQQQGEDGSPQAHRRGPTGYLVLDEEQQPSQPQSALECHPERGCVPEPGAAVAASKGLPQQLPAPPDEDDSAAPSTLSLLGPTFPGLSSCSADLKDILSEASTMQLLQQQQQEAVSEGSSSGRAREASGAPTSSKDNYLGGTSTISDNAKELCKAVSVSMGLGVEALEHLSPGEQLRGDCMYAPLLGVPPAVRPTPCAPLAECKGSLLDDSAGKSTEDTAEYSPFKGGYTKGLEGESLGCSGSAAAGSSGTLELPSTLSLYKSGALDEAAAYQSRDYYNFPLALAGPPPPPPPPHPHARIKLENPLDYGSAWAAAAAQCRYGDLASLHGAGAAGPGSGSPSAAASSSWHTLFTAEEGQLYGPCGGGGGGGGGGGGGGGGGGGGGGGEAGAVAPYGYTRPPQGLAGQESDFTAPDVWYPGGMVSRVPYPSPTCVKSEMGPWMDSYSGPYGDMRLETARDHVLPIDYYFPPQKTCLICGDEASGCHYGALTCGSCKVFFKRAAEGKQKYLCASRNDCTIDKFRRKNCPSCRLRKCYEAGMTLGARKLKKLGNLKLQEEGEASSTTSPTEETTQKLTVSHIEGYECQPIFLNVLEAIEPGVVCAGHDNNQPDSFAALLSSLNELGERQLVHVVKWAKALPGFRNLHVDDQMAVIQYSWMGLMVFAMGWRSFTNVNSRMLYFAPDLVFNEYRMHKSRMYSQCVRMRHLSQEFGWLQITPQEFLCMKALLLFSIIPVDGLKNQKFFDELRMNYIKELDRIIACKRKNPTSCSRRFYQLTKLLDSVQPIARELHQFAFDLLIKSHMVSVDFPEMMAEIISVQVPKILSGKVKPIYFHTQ
Experiment: PSA (6.1 kb)-luciferase reporter assay in LNCaP cells induced with R1881
Type: cell-based
Conditions: LNCaP cells transfected with PSA (6.1 kb)-luciferase; 1 h pre-treatment, R1881 1 nM, 48 h; relative luciferase activity
Description: LNCaP cells were employed initially for all experiments because they are well-differentiated human prostate cancer cells in which ligand-independent activation of the AR by FSK has been characterized (Nazareth et al 1996 J. Biol. Chem. 271, 19900-19907; and Sadar 1999 J. Biol. Chem. 274, 7777-7783). LNCaP cells express endogenous AR and secrete prostate-specific antigen (PSA) (Horoszewicz et al 1983Cancer Res. 43, 1809-1818). LNCaP cells can be grown either as monolayers in cell culture or as tumors in the well-characterized xenograft model that progresses to androgen independence in castrated hosts (Sato et al 1996 J. Steroid Biochem. Mol. Biol. 58, 139-146; Gleave et al 1991 Cancer Res. 51, 3753-3761; Sato et al 1997 Cancer Res. 57, 1584-1589; and Sadar et al 2002 Mol. Cancer. Ther. 1(8), 629-637). R1881 was employed since it is stable and avoids problems associated with the labile physiological ligand dihydrotestosterone (DHT). Reporter specificity may be determined using several alternative reporter gene constructs. Some well characterized ARE-driven reporter gene constructs that have been used extensively are the PSA (6.1 kb) enhance/promoter which contains several AREs and is highly inducible by androgens as well as by FSK (Ueda et al 2002 A J. Biol. Chem. 277, 7076-7085) and the ARR3-thymidine kinase (tk)-luciferase, which is an artificial reporter construct that contains three tandem repeats of the rat probasin ARE1 and ARE2 regions upstream of a luciferase reporter (Snoek et al 1996 J. Steroid Biochem. Mol. Biol. 59, 243-250).
LNCaP cells were transiently cotransfected with PSA (6.1 kb)-luciferase (0.25 μg/well) in 24-well plates for 24 h prior to pre-treatment with compounds for 1 hour before the addition of synthetic androgen, R1881 (1 nM), to induce PSA production or vehicle. The total amount of plasmid DNA transfected was normalized to 0.75 μg/well by the addition of the empty vector. After 48 h of incubation with R1881, the cells were harvested, and relative luciferase activity was determined. Test compounds were added to the cells at various concentrations and activity for each treatment was normalized to the predicted maximal activity induction (in the absence of test compounds, vehicle only). Plotting of sigmoidal curves (Boltzmann Function) and IC50 calculations were done using OriginPro 8.1 Sofware (Northampton, Mass., USA). Furthermore, toxicity was assessed by both microscopic examination and reduction of protein levels. Solubility was assessed both macroscopically (cloudy media) and microscopically (formation of granules or crystals).

SMILES | IC50 [nM]
CCCCOCC(O)COc1ccc(C(C)(C)c2ccc(OCC(O)CCl)cc2)cc1 (centres unmarked) [Compound 34, 1-butoxy-3-(4-(2-(4-(3-chloro-2-hydroxypropoxy)phenyl)propan-2-yl)phenoxy)propan-2-ol] | 1740
C#CCOC[C@@H](O)COc1ccc(C(C)(C)c2ccc(OC[C@H](O)CCl)cc2)cc1 [Compound 16] | 6940
C#CCOC[C@H](O)COc1ccc(C(C)(C)c2ccc(OC[C@H](O)CCl)cc2)cc1 [Compound 12] | 2200
C#CCOC[C@H](O)COc1ccc(C(C)(C)c2ccc(OC[C@@H](O)CCl)cc2)cc1 [Compound 10, (R)-1-chloro-3-(4-(2-(4-((S)-2-hydroxy-3-(prop-2-ynyloxy)propoxy)phenyl)propan-2-yl)phenoxy)propan-2-ol] | 2200
C#CCOCC(O)COc1ccc(C(C)(C)c2ccc(OCC(O)CO)cc2)cc1 (centres unmarked) [Compound 5, 3-(4-(2-(4-(2-hydroxy-3-(prop-2-ynyloxy)propoxy)phenyl)propan-2-yl)phenoxy)propane-1,2-diol] | 4500
CCCCOCC(O)COc1ccc(C(C)(C)c2ccc(OCC(O)COCCCC)cc2)cc1 (centres unmarked) [Compound 33, 3,3′-(4,4′-(propane-2,2-diyl)bis(4,1-phenylene))bis(oxy)bis(1-butoxypropan-2-ol)] | 700
C#CCOCC(O)COc1ccc(C(C)(C)c2ccc(OCC(O)CCl)cc2)cc1 (centres unmarked) [Compound 3, 1-chloro-3-(4-(2-(4-(2-hydroxy-3-(prop-2-ynyloxy)propoxy)phenyl)propan-2-YL)phenoxy)propan-2-ol] | 1600

Results, then the molecule that gave them:

IC50 [nM] | SMILES
11500 | COCC(O)COc1ccc(C(C)(C)c2ccc(OCC(O)CCl)cc2)cc1 (centres unmarked) [Compound 30, 1-chloro-3-(4-(2-(4-(2-hydroxy-3-methoxypropoxy)phenyl)propan-2-yl)phenoxy)propan-2-ol]
1300 | C#CCOC[C@@H](O)COc1ccc(C(C)(C)c2ccc(OC[C@@H](O)CCl)cc2)cc1 [Compound 18]
4500 | CC(C)OCC(O)COc1ccc(C(C)(C)c2ccc(OCC(O)COC(C)C)cc2)cc1 (centres unmarked) [Compound 31, 3,3′-(4,4′-(propane-2,2-diyl)bis(4,1-phenylene))bis(oxy)bis(1-isopropoxypropan-2-ol)]
4500 | CC(C)OCC(O)COc1ccc(C(C)(C)c2ccc(OCC(O)CCl)cc2)cc1 (centres unmarked) [Compound 32, 1-chloro-3-(4-(2-(4-(2-hydroxy-3-isopropdxypropoxy)phenyl)propan-2-yl)phenoxy)propan-2-ol]

Reference: patent publication US20140248263A1, “BISPHENOL COMPOUNDS AND METHODS FOR THEIR USE” (THE UNIVERSITY OF BRITISH COLUMBIA, priority 2011, published 2014)
